From ChEMBL document CHEMBL1141366, “Isolation of quinic acid derivatives and flavonoids from the aerial parts of Lactuca indica L. and their hepatoprotective activity in vitro” (Bioorg Med Chem Lett, 2007)
Calls of active or inactive are those of the source. The calls are words filed in the database; no cut-off is given here.

Legend:
Hepatitis B virus [1] = assay: Antiviral activity against hepatitis B virus assessed as inhibition of viral particle production; format: functional, organism-based
Hepatitis B virus [2] = assay: Hepatoprotective activity against HBV in human HepG2.2.15 cells; format: functional, organism-based; conditions: HepG2 2.2.15

| SMILES | Activity (Hepatitis B virus [1]) | Activity (Hepatitis B virus [2]) |
| --- | --- | --- |
| O=C(/C=C/c1ccc(O)c(O)c1)O[C@@H]1C[C@@](O)(C(=O)O)C[C@@H](O)[C@@H]1O | Active | Active |
| O=c1c(O[C@@H]2O[C@H](CO)[C@@H](O)[C@H](O)[C@H]2O)c(-c2ccc(O)c(O)c2)oc2cc(O)cc(O)c12 | Active | Active |
| O=C(/C=C/c1ccc(O)cc1)O[C@@H]1C[C@](O)(C(=O)O)C[C@@H](O)[C@H]1O | Active | Active |
| O=C(/C=C/c1ccc(O)c(O)c1)O[C@H]1[C@H](O)C[C@](O)(C(=O)O)C[C@H]1OC(=O)/C=C/c1ccc(O)c(O)c1 | Active | Active |
| O=C(/C=C/c1ccc(O)c(O)c1)O[C@@H]1C[C@](O)(C(=O)O)C[C@@H](OC(=O)/C=C/c2ccc(O)c(O)c2)[C@H]1O | Active | Active |
| O=C(/C=C/c1ccc(O)c(O)c1)O[C@@H]1C[C@](O)(C(=O)O)C[C@@H](O)[C@H]1O | Active | Active |
| O=C(/C=C/c1ccc(O)c(O)c1)O[C@@H]1[C@H](O)C[C@@](O)(C(=O)O)C[C@H]1OC(=O)/C=C/c1ccc(O)c(O)c1 | Active | Active |
